A short description of this assay: Inhibition of Lipoxygenase 1B.
On to `Oc1cc(O)c2c(c1)O[C@H](c1ccc(O)c(Oc3cc([C@H]4Oc5cc(O)cc(O)c5C[C@@H]4O)ccc3O)c1)[C@@H](O)C2`, for which the IC50 (commonly the midpoint of a concentration-inhibition curve) is 19.7 µM. This lies in the double-digit micromolar range.
`Oc1cc(O)c2c(c1)O[C@H](c1ccc(O)c(Oc3cc(O)c4c(c3)O[C@H](c3ccc(O)c(O)c3)[C@H](O)C4)c1)[C@H](O)C2` gave an IC50 of 13.5 µM.
Take `CC(C)(O)/C=C/C1=CC(=O)[C@H](O)C[C@]1(C)O`: the IC50 amounted to 150 µM.
On to `O=c1cc(-c2ccccc2)oc2cc(O)c(O)c(O)c12` [BAICALEIN], for which half-maximal inhibition (IC50) was put at 22.6 µM.

Values taken from ChEMBL document CHEMBL1148215, “Lipoxygenase inhibitory constituents from Periploca aphylla” (J Nat Prod, 2004).
